Test results taken from ChEMBL document CHEMBL1201862, “PubChem BioAssay data set” (2004).
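Protocol summary: plate cells (96-well), add compound at 5 concentrations, incubate 48 h, interpolate endpoints linearly. GI50: concentration for 50% inhibition of growth.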 Activity calls are given as the source filed them. No stated cut-off is given here; in the data, active = GI50 up to about 1.1 µM and inactive = higher.

How the values were obtained:
Test in all cases: NCI tumour cell line growth inhibition, 48 h
NCI-H522 = tested on: NCI-H522
HCC 2998 = tested on: HCC 2998
MOLT-4 = tested on: MOLT-4
EKVX = tested on: EKVX
OVCAR-4 = tested on: OVCAR-4
K562 = tested on: K562
HT-29 = tested on: HT-29
SK-MEL-2 = tested on: SK-MEL-2
NCI-H460 = tested on: NCI-H460
SF-539 = tested on: SF-539
HL-60 = tested on: HL-60
HOP-62 = tested on: HOP-62
BT-549 = tested on: BT-549
LOX IMVI = tested on: LOX IMVI
KM12 = tested on: KM12
UO-31 = tested on: UO-31
HOP-92 = tested on: HOP-92
786-0 = tested on: 786-0
COLO 205 = tested on: COLO 205
NCI/ADR-RES = tested on: NCI/ADR-RES

Measured: GI50

COc1cc2c3cc1Oc1c(OC)c(OC)cc4c1C(Cc1ccc(O)c(c1)Oc1ccc(cc1)CC3N(C)CC2)N(C)CC4 (centres undefined)
inactive: NCI-H522 31.5 µM | HCC 2998 15.8 µM | MOLT-4 44.4 µM | EKVX 27.9 µM | OVCAR-4 29 µM | K562 7.78 µM | HT-29 31.3 µM | SK-MEL-2 28.8 µM | NCI-H460 15.7 µM | SF-539 24.8 µM | HL-60 28.3 µM | HOP-62 64.6 µM | BT-549 23.1 µM | LOX IMVI 58.7 µM | KM12 28.1 µM | UO-31 16.7 µM | HOP-92 26.2 µM | 786-0 > 100 µM | COLO 205 32 µM | NCI/ADR-RES 31.5 µM

COc1ccc(C2=NOC(N)(c3ccc(OC)cc3)C2)cc1 (centres undefined)
inactive: NCI-H522 > 100 µM | HCC 2998 > 100 µM | MOLT-4 > 100 µM | EKVX > 100 µM | OVCAR-4 86.5 µM | K562 > 100 µM | HT-29 > 100 µM | SK-MEL-2 > 100 µM | NCI-H460 > 100 µM | SF-539 > 100 µM | HL-60 38.2 µM | HOP-62 64.7 µM | BT-549 > 100 µM | LOX IMVI > 100 µM | KM12 30.8 µM | UO-31 > 100 µM | HOP-92 > 100 µM | 786-0 90.8 µM | COLO 205 > 100 µM | NCI/ADR-RES > 100 µM

O=C1C(/N=N/c2ccc(-c3nc4ccccc4[nH]3)cc2)NC(=S)N1c1ccccc1 (centres undefined)
inactive: NCI-H522 48.6 µM | HCC 2998 21.2 µM | MOLT-4 18.9 µM | EKVX > 100 µM | OVCAR-4 61.9 µM | K562 17.1 µM | HT-29 31.8 µM | SK-MEL-2 > 100 µM | NCI-H460 56.9 µM | SF-539 51.9 µM | HL-60 > 100 µM | HOP-62 > 100 µM | BT-549 > 100 µM | LOX IMVI 19.8 µM | KM12 18 µM | UO-31 > 100 µM | HOP-92 > 100 µM | 786-0 18.9 µM | COLO 205 73.6 µM | NCI/ADR-RES > 100 µM

O=C1CSC(c2cccc(Cl)c2)N1c1ccc(-n2c(-c3ccccc3)nc3ccccc3c2=O)cc1 (centres undefined)
inactive: NCI-H522 43.3 µM | HCC 2998 43.7 µM | MOLT-4 5.47 µM | EKVX > 100 µM | OVCAR-4 18.7 µM | K562 51.6 µM | HT-29 97.7 µM | SK-MEL-2 > 100 µM | NCI-H460 39.1 µM | SF-539 67.1 µM | HL-60 > 100 µM | HOP-62 > 100 µM | BT-549 9.98 µM | LOX IMVI 46.2 µM | KM12 21.3 µM | UO-31 3.22 µM | HOP-92 2.69 µM | 786-0 > 100 µM | COLO 205 > 100 µM | NCI/ADR-RES 25.5 µM

CN(CCNC(=O)c1cn(C)c2c1ccc1cc(Cl)ccc12)CCNC(=O)c1cn(C)c2c1ccc1cc(Cl)ccc12
inactive: NCI-H522 1.85 µM | HCC 2998 1.49 µM | MOLT-4 5.01 µM | EKVX 1.94 µM | OVCAR-4 1.66 µM | K562 5.96 µM | HT-29 1.93 µM | SK-MEL-2 6.92 µM | NCI-H460 3.24 µM | SF-539 4.78 µM | HL-60 3.26 µM | HOP-62 1.79 µM | BT-549 3.43 µM | LOX IMVI 5.71 µM | KM12 1.67 µM | UO-31 1.53 µM | HOP-92 5.85 µM | 786-0 1.99 µM | COLO 205 1.2 µM | NCI/ADR-RES 2.05 µM

COC(=O)c1c(CC(Cc2ccc3c(c2)CCCC3)C(=O)O)ccc2c1CCCC2 (centres undefined)
inactive: NCI-H522 11.6 µM | HCC 2998 32.4 µM | MOLT-4 37.1 µM | EKVX 25.2 µM | OVCAR-4 34.5 µM | K562 34.7 µM | HT-29 33 µM | SK-MEL-2 20.9 µM | NCI-H460 21.9 µM | SF-539 22.5 µM | HL-60 23 µM | HOP-62 22.8 µM | BT-549 40.9 µM | LOX IMVI 17.5 µM | KM12 27.4 µM | UO-31 25.8 µM | HOP-92 25.2 µM | 786-0 36.1 µM | COLO 205 18.3 µM | NCI/ADR-RES 17.9 µM

CC1(C)C=C(/C=N/Nc2ccc([N+](=O)[O-])cc2)C(C#N)=C(O)C1(C#N)C#N
inactive: NCI-H522 > 100 µM | HCC 2998 > 100 µM | MOLT-4 > 100 µM | EKVX > 100 µM | OVCAR-4 > 100 µM | K562 > 100 µM | HT-29 > 100 µM | SK-MEL-2 > 100 µM | NCI-H460 > 100 µM | SF-539 > 100 µM | HL-60 > 100 µM | HOP-62 > 100 µM | BT-549 > 100 µM | LOX IMVI > 100 µM | KM12 > 100 µM | UO-31 > 100 µM | HOP-92 > 100 µM | 786-0 > 100 µM | COLO 205 > 100 µM | NCI/ADR-RES > 100 µM

NNc1nc2ccccc2c(=O)n1NC(=O)C(=O)Nc1cccc(C(F)(F)F)c1
inactive: NCI-H522 > 100 µM | HCC 2998 > 100 µM | MOLT-4 > 100 µM | EKVX > 100 µM | OVCAR-4 > 100 µM | K562 > 100 µM | HT-29 > 100 µM | SK-MEL-2 > 100 µM | NCI-H460 > 100 µM | SF-539 > 100 µM | HL-60 > 100 µM | HOP-62 > 100 µM | BT-549 > 100 µM | LOX IMVI > 100 µM | KM12 > 100 µM | UO-31 > 100 µM | HOP-92 > 100 µM | 786-0 > 100 µM | NCI/ADR-RES > 100 µM

CCOC(=O)C(Cc1cccn1C(=O)OC(C)(C)C)[N+](=O)[O-] (centres undefined)
inactive: NCI-H522 19.6 µM | HCC 2998 21 µM | MOLT-4 20 µM | EKVX 48.3 µM | OVCAR-4 28.6 µM | K562 24.7 µM | HT-29 22.3 µM | SK-MEL-2 20.1 µM | NCI-H460 24.3 µM | SF-539 22.1 µM | HL-60 21.1 µM | HOP-62 23.9 µM | BT-549 30.8 µM | LOX IMVI 17.5 µM | KM12 22.8 µM | UO-31 21.2 µM | HOP-92 28.2 µM | 786-0 21.9 µM | COLO 205 20.8 µM | NCI/ADR-RES 44.7 µM

CC(C)C(/C=C/c1ccccc1)=N\NC(=S)NN
inactive: NCI-H522 16.7 µM | HCC 2998 99.1 µM | MOLT-4 12.7 µM | EKVX 38 µM | OVCAR-4 50.5 µM | K562 24 µM | HT-29 98.2 µM | SK-MEL-2 > 55.6 µM | NCI-H460 40.6 µM | SF-539 > 51.1 µM | HL-60 19.4 µM | HOP-62 > 84.1 µM | BT-549 > 96.2 µM | LOX IMVI 16.5 µM | KM12 > 86.1 µM | UO-31 32.3 µM | HOP-92 36.4 µM | 786-0 56.1 µM | COLO 205 55.1 µM | NCI/ADR-RES 41.6 µM
